Test results from patent publication US20030104507A1, “Method for detection of ATP” (priority 2001, published 2003).

System: ATPase activity endogenous to L929 cell lysate
Test: Detergent inhibition of ATPase endogenous to L929 cell lysate (ATP remaining by luciferase luminescence, 22° C.)
Assay type: biochemical
Parameters: key to Relative ATPase Activity, slope det/slope lysate: slope with detergent / slope without; ≥1.0 = 100% activity, 0.5 = 50%
Method: Three separate detergents in each of four detergent classes were tested: anionic [SDS (Sodium dodecyl sulfate), Bioterge (an α olefin sulfate), and sodium deoxycholate], nonionic [TRITON X-100, BigCHAP (N,N-bis(3-D-Gluconamidopropyl)cholamide) and THESIT (polyethylene glycol 400 dodecyl ether, Fluka, #88315)], cationic [BDDABr (Benzyldimethyldodecylammonium bromide), CTAB (Cetyltrimethylammonium bromide), and DTAB (dodecyltrimethylammonium bromide)] and zwitterionic [CHAPS (3[(3-Cholamidopropyl)dimethylammonio]propanesulfonic acid), CHAPSO (3-([3-Cholamidopropyl]dimethylammonio)-2-hydroxy-1-propanesulfonate), and Sulfobetaine 3-10 ([…]-N,N-dimethyl-3-ammonio-1-propanesulfonate)]. Detergents were obtained from Sigma, Fluka and Aldrich.
L929 cells (ATCC CCL-1; 1.5×10^5 cells/ml) in F12/DMEM (Hyclone, SH30023) containing 10% horse serum (Hyclone, SH30074) were frozen and thawed for four cycles to create a cell lysate. Then 50 μl of stock detergent solutions [10%, 5.0%, 1.0%, and 0.5% (w/v)] were separately added to 450 μl cell lysate, creating a final detergent concentration in the cell lysate sample of 1.0%, 0.5%, 0.1%, and 0.05%, respectively (these percentage values are those used in Tables D and E herein below). Control samples contained either lysate only or 1.0 μM ATP in 15 mM HEPES buffer (pH 7.5). All samples were incubated at 22° C. (room temperature) for the duration of the experiment.
At various timepoints, 20 μl from each sample/detergent mixture was added to a 96-well luminometer plate in triplicate, and then 100 μl of a solution (“luciferase-luciferin” or “L/L reagent”) containing 25 mM HEPES buffer (pH 7.5), 40 μg luciferase enzyme LucPpe2m146 (Promega, E140), 100 μM luciferin (Promega), and 10 mM MgSO4 was added to each well. The L/L reagent was stored at 4° C. for the duration of the experiment and then allowed to reach ambient temperature just before assaying. After mixing the contents of the plate, light output was measured with a Dynex MLX microtiter plate luminometer (Chantilly, Va.), 0.5 second reads per well with the first measurement taken five minutes after the detergent solution was combined with the sample. The average relative light units and the timepoint at which it was measured (rlu; Table D) and percent of remaining luciferase activity at the timepoint (Table E) are reported; controls were run with each set of experimental conditions as indicated. The cationic and anionic detergents were assayed on one day with one set of controls. The zwitterionic and nonionic detergents were assayed on a separate day with a separate set of controls. The DTAB at 0.5% was assayed on both days (1 and 2).
The experiment was performed as detailed in Example 1. The average relative light unit values and the percent of ATP remaining values are listed below in Table F and G respectively.
The log of the percent of ATP remaining after original timepoint values from Table E and Table G were plotted on the y axis against time (in minutes) on the x axis. The slope of the line generated by these values in the presence of detergent was divided by the slope of the line generated by the values in the absence of detergent (lysate control) resulting in the Relative ATPase Activity values listed below in Table H.
A relative activity value of 1.0 or greater indicates 100% cellular ATPase activity at the concentration of detergent tested. A relative activity value of 0.5 indicates a two-fold (or 50%) decrease in the level of cellular ATPase activity at the concentration of detergent tested when compared to the ATPase activity level in the absence of the detergent. A relative activity value of 0.2 indicates a five-fold (or 80%) decrease in the level of cellular ATPase activity at the concentration of detergent tested when compared to the ATPase activity level in the absence of the detergent.

## C[C@H](CCC(=O)N(CCCNC(=O)[C@H](O)[C@@H](O)[C@H](O)[C@H](O)CO)CCCNC(=O)[C@H](O)[C@@H](O)[C@H](O)[C@H](O)CO)[C@H]1CC[C@H]2[C@@H]3[C@H](O)C[C@@H]4C[C@H](O)CC[C@]4(C)[C@H]3C[C@H](O)[C@]12C [BIGCHAP, N,N-bis(3-D-Gluconamidopropyl)cholamide]
0.05% detergent, 5 min
  Average Relative Light Unit Values: 6410.42 rlu
  Percent ATP Remaining: 100%
0.05% detergent, 75 min
  Average Relative Light Unit Values: 2260.45 rlu
  Percent ATP Remaining: 35.3%
0.05% detergent, 169 min
  Average Relative Light Unit Values: 1036.69 rlu
  Percent ATP Remaining: 16.2%
0.05% detergent, 222 min
  Average Relative Light Unit Values: 487.72 rlu
  Percent ATP Remaining: 7.6%
0.05% detergent, 260 min
  Average Relative Light Unit Values: 238.44 rlu
  Percent ATP Remaining: 3.7%
0.05 percent detergent
  Relative ATPase Activity, slope det/slope lysate: 1.069
  Slope (log percent ATP remaining vs time in minutes): −0.0056
0.1% detergent, 5 min
  Average Relative Light Unit Values: 6607.01 rlu
  Percent ATP Remaining: 100%
0.1% detergent, 75 min
  Average Relative Light Unit Values: 2087.01 rlu
  Percent ATP Remaining: 31.6%
0.1% detergent, 169 min
  Average Relative Light Unit Values: 1363.07 rlu
  Percent ATP Remaining: 20.6%
0.1% detergent, 222 min
  Average Relative Light Unit Values: 634.92 rlu
  Percent ATP Remaining: 9.6%
0.1% detergent, 260 min
  Average Relative Light Unit Values: 301.55 rlu
  Percent ATP Remaining: 4.6%
0.10 percent detergent
  Relative ATPase Activity, slope det/slope lysate: 0.968
  Slope (log percent ATP remaining vs time in minutes): −0.0051
0.5% detergent, 5 min
  Average Relative Light Unit Values: 7438.53 rlu
  Percent ATP Remaining: 100%
0.5% detergent, 75 min
  Average Relative Light Unit Values: 3618.22 rlu
  Percent ATP Remaining: 48.6%
0.5% detergent, 169 min
  Average Relative Light Unit Values: 2092.69 rlu
  Percent ATP Remaining: 28.1%
0.5% detergent, 222 min
  Average Relative Light Unit Values: 1144.80 rlu
  Percent ATP Remaining: 15.4%
0.5% detergent, 260 min
  Average Relative Light Unit Values: 677.61 rlu
  Percent ATP Remaining: 9.1%
0.50 percent detergent
  Relative ATPase Activity, slope det/slope lysate: 0.782
  Slope (log percent ATP remaining vs time in minutes): −0.0041
1.0% detergent, 5 min
  Average Relative Light Unit Values: 7576.05 rlu
  Percent ATP Remaining: 100%
1.0% detergent, 75 min
  Average Relative Light Unit Values: 4043.35 rlu
  Percent ATP Remaining: 53.4%
1.0% detergent, 169 min
  Average Relative Light Unit Values: 2474.59 rlu
  Percent ATP Remaining: 32.7%
1.0% detergent, 222 min
  Average Relative Light Unit Values: 1374.29 rlu
  Percent ATP Remaining: 18.1%
1.0% detergent, 260 min
  Average Relative Light Unit Values: 822.65 rlu
  Percent ATP Remaining: 10.9%
1.00 percent detergent
  Relative ATPase Activity, slope det/slope lysate: 0.725
  Slope (log percent ATP remaining vs time in minutes): −0.0038
